In patent publication US8999937B2, “Glucocorticoid induced leucine zipper mimetics as therapeutic agents in multiple sclerosis” (Indiana University Research and Technology Corporation, priority 2011, dated 2015):

System: CD4+ LNC from PLP primed SJL/J mice
Test: In vitro proliferation ([3H]-thymidine) of PLP139-151 restimulated CD4+ LNC from primed SJL/J mice
Type: cell-based, mouse
Conditions: with Pep-1, PLP 40 μg/ml, 72 h
Protocol: CD4+ lymph node cells (LNC) isolated from the draining lymph nodes harvested from SJL/J mice 10 days after immunization with PLP139-151 were cultured in 96-well plates at […] in complete RPMI and restimulated with the PLP peptide (40 μg/ml) for 72 h, including a final 16-h pulse with [^3H]-thymidine. […] Separate cultures stimulated with ova (40 μg/ml) served as control for antigen specificity. Irradiated splenocytes from syngenic mice were used as antigen presenting cells (APC). Cultures were harvested onto glass fiber mats using a Skatron harvester (Skatron, Sterling, Va.), and the levels of [^3H]-thymidine incorporation were determined by liquid scintillation counting (Microbeta; Wallac, Turku, Finland). Results were confirmed by replicate experiments. Data are expressed as Δcpm (counts/min incorporated in antigen-stimulated culture-counts/min incorporated by control unstimulated culture).
Supernatants collected at 24 and 48 h were assessed for specific cytokines using the OptEIA kits (BD Biosciences). Proliferation assays included parallel cultures for 72 h with a final 18-h pulse with [^3H]thymidine measured by liquid scintillation counting (Microbeta, Turku, Finland).

Question: With `C[C@@H]1C[C@H]2[C@@H]3CCC4=CC(=O)C=C[C@]4(C)[C@@]3(F)[C@@H](O)C[C@]2(C)[C@@]1(O)C(=O)CO` [dexamethasone, reference compound] as the compound, how does the “proliferative response (Δcpm)” value read?
Answer: Its value is 2226+/−327 cpm.
